# Source: US20240327392A1, “HETEROCYCLOALKYL-SUBSTITUTED POLYHETEROAZOLE DERIVATIVES AS MEDICAMENTS FOR TREATING AND/OR PREVENTING RS VIRUS INFECTIONS” (ALBIUS SCIENCES ALPHA PRIVATE LIMITED, priority 2021, published 2024)
# System: human RS virus A2 strain
# Experiment: In vitro test for anti-RS virus proliferation inhibitory activity (quantitative RT-PCR of RS virus RNA copy number in infected Vero cells)
# Assay type: cell-based
# Details: 72 h; Vero cells infected with human RS virus A2 strain, 3 days of incubation, RS virus N gene RNA copy number by quantitative RT-PCR; read-out: Anti-RS virus Activity
# Procedure: A mixture of Vero cells (3.4×10^5 cells/mL) and human RS virus A2 strain (1.7×10^4 TCID50/mL) (EMEM medium supplemented with 10% FCS) was added to a 96-well plate at 50 μL/well, and the 10% FCS-supplemented EMEM medium adjusted to the desired final concentration of the compounds to be tested was added at 50 μL/well, followed by incubating the plate at 37° C. in the presence of 5% CO2 at 37° C. After 3 days of incubation, the supernatant was removed, the cells were washed with PBS(−), and the cell lysis buffer supplied with the SingleShot (registered trademark) Cell Lysis Kit (Bio-Rad) was added dropwise at 50 μL/well to lysis the cells thereby providing the cell lysate.
# Human RS virus RNA copy number in the cell lysate was determined by quantitative RT-PCR using iTaq Universal SYBR Green One-Step Kit (Bio-Rad). Specifically, primers targeting human RS virus N gene (Rameix-Welti et al, Nat Commun5: 5104, 2014. doi: 10.1038/ncomms6104) was used to prepare the reaction solution according to the instructions provided with the kit, and a 96-well PikoReal Real-Time PCR System (TCR0096, Thermo Fisher Scientific) was used to detect PCR reaction and signal assay.
# The copy number was calculated by the relative method using the comparative Ct method using compound-free virus-infected cells as controls.
row,IC50,Compound
1,< 10 µM,"O=S(=O)(c1ccccc1)N1CCCC[C@H]1c1nc(CCCc2ccccc2)no1 [Compound 2D, 3-(3-phenylpropyl)-5-[(2S)-1-benzenesulfonylpiperidin-2-yl]-1,2,4-oxadiazole]"

# Same assay, conditions: 72 h; Vero cells infected with human RS virus A2 strain, 3 days of incubation, RS virus RNA copy number by quantitative RT-PCR; read-out: Anti-RS virus Activity
row,IC50,Compound
1,10 to 50 µM,"COC(=O)c1nc([C@@H]2CCCCN2S(=O)(=O)C2CCCCC2)sc1C [Compound 35B, Methyl (S)-2-(1-(cyclohexylsulfonyl)piperidin-2-yl)-5-methylthiazole-4-carboxylate]"
2,10 to 50 µM,"CC(C)(C)NC(=O)N1CCCC[C@H]1c1nc(CCc2ccncc2)no1 [Compound 12H, (S)—N-(tert-butyl)-2-(3-(2-(pyridin-4-yl)ethyl)-1,2,4-oxadiazol-5-yl)piperidine-1-carboxamide]"
3,10 to 50 µM,"CC(C)(C)OC(=O)N1[C@@H]2CC[C@@H](C2)[C@H]1c1nnc(Cc2c[nH]c3ccccc23)[nH]1 [Compound 24-1, Tert-butyl (1R,3S,4S)-3-(5-((1H-indol-3-yl)methyl)-4H-1,2,4-triazol-3-yl)-2-azabicyclo[2.2.1]heptane-2-carboxylate]"
4,> 50 µM,"CC(C)NC(=O)N1CCCC[C@H]1c1nc(CCc2ccccc2)no1 [Compound 10G, (S)—N-isopropyl-2-(3-phenethyl-1,2,4-oxadiazol-5-yl) piperidine-1-carboxamide]"
5,< 10 µM,"c1ccc(CCCc2noc([C@@H]3CCCN3CC3CCCCC3)n2)cc1 [Compound 1U, (S)-5-(1-(cyclohexylmethyl)pyrrolidin-2-yl)-3-(3-phenylpropyl)-1,2,4-oxadiazole]"
6,< 10 µM,"COc1ccc(CCCc2noc([C@@H]3CCCCN3S(=O)(=O)C3CCCCC3)n2)cc1OC [Compound 22B, (S)-5-(1-(cyclohexylsulfonyl)piperidin-2-yl)-3-(3-(3,4-dimethoxyphenyl)propyl)-1,2,4-oxadiazole]"
7,< 10 µM,"O=C(c1ccccc1)N1CCCC[C@H]1c1nc(CCCc2ccccc2)no1 [Compound 2S, (S)-Phenyl(2-(3-(3-phenylpropyl)-1,2,4-oxadiazol-5-yl)piperidin-1-yl)methanone]"
8,< 10 µM,"CC(C)CS(=O)(=O)N1CC2(CC2)C[C@H]1c1nc(CCCc2ccccc2)no1 [Compound 5A, 3-(3-phenylpropyl)-5-{(6S)-5-isobutylsulfonyl-5-azaspiro[2.4]hept-6-yl}-1,2,4-oxadiazole]"
9,10 to 50 µM,"CC(C)(C)OC(=O)N1C[C@@H](C#N)C[C@H]1c1nc(CCCc2ccccc2)no1 [Compound 41-1, Tert-butyl (2S,4S)-4-cyano-2-(3-(3-phenylpropyl)-1,2,4-oxadiazol-5-yl)pyrrolidine-1-carboxylate]"
10,10 to 50 µM,"O=C(NCc1noc([C@@H]2C[C@@H](c3ccccc3)CN2S(=O)(=O)c2ccc(F)cc2)n1)c1cnc2ccccc2c1 [Compound 46AJ, N-((5-((2S,4S)-1-((4-fluorophenyl)sulfonyl)-4-phenylpyrrolidin-2-yl)-1,2,4-oxadiazol-3-yl)methyl)quinoline-3-carboxamide]"
11,< 10 µM,"CC(C)(C)OC(=O)N1CCCC[C@H]1c1nc(CCc2ccncc2)no1 [Compound 12-1, Tert-butyl (S)-2-(3-(2-(pyridin-4-yl)ethyl)-1,2,4-oxadiazol-5-yl)piperidine-1-carboxylate]"
12,< 10 µM,"CN(C)c1ccc(S(=O)(=O)N2CC(CC3CCC3)CC2c2nc(CCCc3ccccc3)no2)cc1 (centres unmarked) [Compound 6AK, 4-((4-(cyclobuthylmethyl)-2-(3-(3-phenylpropyl)-1,2,4-oxadiazole-5-yl)pyrrolidin-1-yl)sulfonyl)-N,N-dimethylaniline]"
13,10 to 50 µM,"CC(C)(C)NC(=O)N1[C@@H]2CC[C@@H](C2)[C@H]1c1nnc(Cc2c[nH]c3ccccc23)[nH]1 [Compound 24H, (1R,3S,4S)-3-(5-((1H-indol-3-yl)methyl)-4H-1,2,4-triazol-3-yl)-N-(tert-butyl)-2-azabicyclo[2.2.1]heptane-2-carboxamide]"
